Assay [1] addresses T1, M-phase inducer phosphatase 3 (Homo sapiens, UniProt P30307).
T1 sequence (P30307 whole entry): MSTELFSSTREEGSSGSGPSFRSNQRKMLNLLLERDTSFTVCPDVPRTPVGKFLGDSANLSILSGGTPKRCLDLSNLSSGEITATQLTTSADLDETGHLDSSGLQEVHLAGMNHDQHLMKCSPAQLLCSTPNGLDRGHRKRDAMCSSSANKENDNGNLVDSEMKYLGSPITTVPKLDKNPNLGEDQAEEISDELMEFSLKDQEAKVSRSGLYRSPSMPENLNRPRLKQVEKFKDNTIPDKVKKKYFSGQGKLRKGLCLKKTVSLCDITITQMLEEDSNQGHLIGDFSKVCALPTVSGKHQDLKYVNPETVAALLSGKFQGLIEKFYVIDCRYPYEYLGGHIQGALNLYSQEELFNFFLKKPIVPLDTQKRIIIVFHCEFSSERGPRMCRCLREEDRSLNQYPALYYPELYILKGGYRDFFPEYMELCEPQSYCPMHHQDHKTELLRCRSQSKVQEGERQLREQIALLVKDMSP
Description: Inhibition of human CDC25C phosphatase.

Assay [2] deals with T2, M-phase inducer phosphatase 2 (Homo sapiens, UniProt P30305).
T2 sequence (P30305 whole entry): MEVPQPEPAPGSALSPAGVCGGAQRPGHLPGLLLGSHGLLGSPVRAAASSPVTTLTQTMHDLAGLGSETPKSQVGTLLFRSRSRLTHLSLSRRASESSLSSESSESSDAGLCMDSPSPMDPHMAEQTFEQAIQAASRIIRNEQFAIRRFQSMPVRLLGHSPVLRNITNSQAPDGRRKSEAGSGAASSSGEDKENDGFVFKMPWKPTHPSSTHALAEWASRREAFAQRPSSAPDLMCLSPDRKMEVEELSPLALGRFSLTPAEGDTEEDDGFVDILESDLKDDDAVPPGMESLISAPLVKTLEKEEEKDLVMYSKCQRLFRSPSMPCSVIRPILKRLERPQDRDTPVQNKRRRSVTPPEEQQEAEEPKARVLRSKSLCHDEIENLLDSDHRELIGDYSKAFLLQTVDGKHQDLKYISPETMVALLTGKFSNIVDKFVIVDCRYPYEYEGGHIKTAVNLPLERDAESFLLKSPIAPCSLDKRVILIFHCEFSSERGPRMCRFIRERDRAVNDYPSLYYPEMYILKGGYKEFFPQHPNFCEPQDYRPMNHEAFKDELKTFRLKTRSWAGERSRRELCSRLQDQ
Put plainly: Inhibition of human CDC25B phosphatase.

Assay [3] concerns the target T3, M-phase inducer phosphatase 1 (Homo sapiens, UniProt P30304).
T3 sequence (P30304 whole entry): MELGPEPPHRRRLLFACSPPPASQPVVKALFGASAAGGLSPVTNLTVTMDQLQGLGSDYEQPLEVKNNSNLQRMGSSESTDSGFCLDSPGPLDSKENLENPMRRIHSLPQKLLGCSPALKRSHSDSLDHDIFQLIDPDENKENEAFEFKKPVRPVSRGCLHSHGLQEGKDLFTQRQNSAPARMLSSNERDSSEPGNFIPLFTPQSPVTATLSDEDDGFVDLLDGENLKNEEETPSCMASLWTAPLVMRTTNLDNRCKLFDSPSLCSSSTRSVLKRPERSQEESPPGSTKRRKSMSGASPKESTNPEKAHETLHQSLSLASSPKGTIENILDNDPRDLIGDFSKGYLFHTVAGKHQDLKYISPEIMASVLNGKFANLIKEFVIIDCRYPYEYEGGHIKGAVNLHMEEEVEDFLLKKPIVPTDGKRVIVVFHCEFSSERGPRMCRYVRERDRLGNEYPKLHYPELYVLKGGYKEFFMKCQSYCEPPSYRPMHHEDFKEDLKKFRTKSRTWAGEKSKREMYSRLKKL
Put plainly: Inhibition of human CDC25A phosphatase.

Assay [4] in a line: Antiproliferative activity against human hTERT-HME1 cells assessed as growth inhibition. Type of assay: functional, cell-based.
Assay [5] has as its system MCF7. Description: Antiproliferative activity against human MCF7 cells assessed as growth inhibition. Type of assay: functional, cell-based.
Assay [6] deals with MDA-MB-231. Description: Antiproliferative activity against human MDA-MB-231 cells assessed as growth inhibition. Type of assay: functional, cell-based.
For assay [7], the system named is HCT-15. Description: Cytotoxicity against human HCT15 cells assessed as cell viability incubated for 72 hrs by SRB assay. Type of assay: functional, cell-based. The settings on record: HCT-15, 72 h. Background: In SRB staining, fixed cells bind dye roughly in proportion to their protein.
The test system of assay [8] is MCF7. Put plainly: Cytotoxicity against human MCF7 cells assessed as cell viability incubated for 72 hrs by SRB assay. Type of assay: functional, cell-based. The following applies: MCF7, 72 h.
The subject of assay [9] is MCF7. Description: Antiproliferative activity against human MCF7 cells. Type of assay: functional, cell-based.
Assay [10] deals with SK-N-MC. Put plainly: Cytotoxicity against human SK-N-MC cells as cell viability by MTT assay. Type of assay: functional, cell-based.
The subject of assay [11] is MCF7. Put plainly: Antitumor activity against human MCF7 cells assessed as cell viability by MTT assay. Type of assay: functional, cell-based. In general terms: Formazan colour is commonly taken as a measure of viable cells.
In assay [12] the test system is MDA-MB-231. Description: Cytotoxicity against human MDA-MB-231 cells assessed as cell viability by MTT assay. Type of assay: functional, cell-based.
Assay [13] relates to A549. Put plainly: Antitumor activity against human A549 cells assessed as cell viability incubated for 72 hrs by MTT assay. The settings on record: A549, 72 h. Type of assay: functional, cell-based.
The subject of assay [14] is HepG2. Description: Cytotoxicity against human HepG2 cells assessed as cell viability by MTT assay. Type of assay: functional, cell-based.
Assay [15] is described as follows: Antiproliferative activity against human DLD1 cells assessed as growth inhibition. Type of assay: functional. The settings on record: DLD-1.
Assay [16] deals with NCI-H157. Description: Antiproliferative activity against human NCI-H157 cells assessed as growth inhibition. Type of assay: functional.
Assay [17] has as its system DU-145. Put plainly: Antiproliferative activity against human DU145 cells assessed as growth inhibition. Type of assay: functional.
Assay [18] in a line: Antiproliferative activity against human BT20 cells assessed as growth inhibition. Type of assay: functional. The following applies: BT-20.
Assay [19] concerns K562. Description: Antiproliferative activity against human K562 cells assessed as growth inhibition. Type of assay: functional.
In assay [20] the test system is DU-145. Put plainly: Antiproliferative activity against human DU145 cells assessed as growth inhibition by tryphan blue exclusion method. Type of assay: functional.
The test system of assay [21] is HepG2. Put plainly: Cytotoxicity against human HepG2 cells assessed as cell viability incubated for 72 hrs by SRB assay. Type of assay: functional, cell-based. The settings on record: HepG2, 72 h.
Assay [22] has as its system NCI-H460. Description: Antiproliferative activity against human NCI-H460 cells assessed as growth inhibition. Type of assay: functional, cell-based.
The subject of assay [23] is KB. Description: Antiproliferative activity against human KB cells assessed as growth inhibition. Type of assay: functional, cell-based.
Assay [24] deals with K562. Put plainly: Antitumor activity against human K562 cells assessed as cell viability by MTT assay. Type of assay: functional, cell-based.

In brackets after ≈: the same amount, converted by molar mass.

In the case of `COc1ccc2c(CSC3=CC(=O)c4ccccc4C3=O)cc(=O)oc2c1`, the IC50 was not above 9 µM in assay [1]; not above 9 µM in assay [2]; not above 9 µM in [3]; 18 µM in assay [4]; not above 11 µM in assay [5]; not above 11 µM in assay [6].

Turning to `CCOC1(c2ccccc2)Oc2c(c(=O)oc3ccccc23)/C1=C\C(=O)c1ccccc1` (stereo not drawn), the half-maximal inhibitory concentration (IC50) in assay [7] and in assay [8] was 8 µM each time.

In assay [9], `Cc1cc(C(=O)c2ccccc2Br)ccc1OCC(=O)NNC(=O)c1cc2ccccc2oc1=O` registered an IC50 of less than 10 µM.

Consider `O=c1oc2ccccc2c2c1C(c1cc(Br)ccc1O)SCCN2` (stereo not drawn), for which the IC50 worked out at 3.75 µg/mL (≈ 9.28 µM) in [10], 3.75 µg/mL in assay [11] and 3.75 µg/mL (≈ 9.28 µM) in [12].

Turning to `Cc1ccc2c(c1)C(c1ccccc1)c1c(c3ccccc3oc1=O)N2` (stereo not drawn), the IC50 in [13] was 0.14 µM; in assay [11], 0.52 µM.

On to `O=C(/C=C1\c2c(c3ccccc3oc2=O)OC1(c1ccccc1)N1CCCC1)c1ccccc1` (stereo not drawn), for which the concentration for half-maximal inhibition (IC50) in [7] and in assay [8] was 8 µM in each case.

As for `COc1ccc(-c2csc(-n3nc(C)cc3-c3cc4cc(Cl)ccc4oc3=O)n2)cc1`, the IC50 in assay [14] is not above 3.25 µM.

On to `Cc1cc(-c2cc3cc(Cl)ccc3oc2=O)n(-c2nc(-c3ccc(Cl)cc3)cs2)n1`, for which the half-inhibitory concentration (IC50) in assay [14] is not above 3.25 µM.

Consider `O=c1oc2c(Br)cccc2cc1S(=O)(=O)Nc1ccc(Br)cc1`, for which the GI50 in [15], in assay [16], in [17], in assay [18] and in assay [19] was 12 µM in each case.

Take `COc1cccc(C2c3cc(C)ccc3Nc3c2c(=O)oc2ccccc32)c1` (stereo not drawn): the half-inhibitory concentration (IC50) in assay [13] stood at 0.05 µM.

In the case of `Cc1ccc(C(=O)c2cc(F)c(OCC(=O)NNC(=O)c3cc4ccccc4oc3=O)c(Cl)c2)cc1`, the IC50 in [9] was less than 10 µM.

Turning to `NCCCCCCCCNC(=O)c1c(O)c2ccccc2oc1=O`, the GI50 in [20] is less than 10 µM.

As to `CC1=CP(C(c2ccccc2)(c2ccccc2)c2ccccc2)Oc2c1c(=O)oc1ccccc21` (stereo not drawn), the IC50 in [21] and in [8] was not above 3.89 µg/mL in each case.

Turning to `C/C(=N/NC(=O)c1cc2ccccc2oc1=O)c1cccnc1`, in [22], the IC50 turned out to be 10 µM.

In the case of `COc1cc(OC)cc(-c2cc3ccc(OC(C)=O)c(OC(C)=O)c3oc2=O)c1`, the IC50 in assay [23] amounted to 5.18 µM.

In assay [9], `Cc1cc(C(=O)c2ccc(Cl)cc2Cl)ccc1OCC(=O)NNC(=O)c1cc2ccccc2oc1=O` came in with an IC50 of less than 10 µM.

`CCc1nc([N+](=O)[O-])c(N2CCN(/C(=N/Nc3ccc4c(C)cc(=O)oc4c3)C(C)=O)CC2)n1Cc1ccccc1`: the IC50 came to 9.3 µM in assay [24] and 20.2 µM in assay [11].

By IC50 is commonly meant the midpoint of a concentration-inhibition curve. The GI50 is the concentration that inhibits growth by half.
